Laboratory results as given in US10618903B2, “Heteroaryl substituted aminopyridine compounds” (BRISTOL-MYERS SQUIBB COMPANY, priority 2015, dated 2020).

Columns and labels:
IRAK4 = IRAK4 (Homo sapiens (Human), UniProt Q9NWZ3); test: IRAK4 Inhibition Assay; type: biochemical; conditions: ATP 500 μM; IRAK4 0.6 nM
How it was run: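 Readout: electrophoretic (LabChip) separation of fluorescent peptide substrate from phosphorylated product after EDTA quench. Reactions ran 60 min at room temperature with 0.6 nM IRAK4, 1.5 μM peptide and 500 μM ATP; inhibition referenced to no-enzyme (100%) and vehicle (0%) controls.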

[1] = test system: IL-6 levels in human whole blood stimulated with a TLR2 agonist; test: IRAK4 Whole Blood Assay (lipoteichoic acid/TLR2-stimulated IL-6); type: cell-based; conditions: lipoteichoic acid 10 μg/mL, IL-6 readout
Method: Human whole blood containing the anti-coagulant ACD-A was plated in 384-well plate (25 μL/well) and incubated with compounds for 60 minutes at 37° C. in a 5% CO2 incubator. The blood was stimulated with a TLR2 agonist, 10 μg/mL final concentration of lipoteichoic acid (Invivogen, San Diego, Calif.) in 25 μL RPMI (Gibco) for 5 hours in a 5% CO2 incubator. At the end of the incubation, plates were centrifuged at 2300 rpm for 5 minutes. Supernatants were harvested and analyzed for IL-6 levels by Flow Cytometry beads assay (BD Biosciences, San Jose, Calif.).

Sequence of IRAK4 (Q9NWZ3 whole entry): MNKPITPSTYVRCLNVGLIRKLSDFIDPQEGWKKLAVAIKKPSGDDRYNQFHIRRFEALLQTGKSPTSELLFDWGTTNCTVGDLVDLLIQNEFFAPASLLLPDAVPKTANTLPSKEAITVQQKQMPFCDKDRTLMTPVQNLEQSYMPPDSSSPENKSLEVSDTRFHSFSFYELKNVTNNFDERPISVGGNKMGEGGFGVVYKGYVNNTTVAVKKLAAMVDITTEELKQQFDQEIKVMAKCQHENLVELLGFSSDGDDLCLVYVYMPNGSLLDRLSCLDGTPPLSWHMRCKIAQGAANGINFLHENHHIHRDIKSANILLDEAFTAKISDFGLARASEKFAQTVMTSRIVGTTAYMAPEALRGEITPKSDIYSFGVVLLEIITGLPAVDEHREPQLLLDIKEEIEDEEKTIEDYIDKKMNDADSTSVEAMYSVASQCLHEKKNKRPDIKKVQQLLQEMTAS

| SMILES | IC50 (IRAK4) | EC50 [1] | EC50 ([1]; Homo sapiens) |
| --- | --- | --- | --- |
| CC(C)OC1CC(Nc2cc(-c3cnn4cc(Cl)cnc34)ncc2C(=O)NC[C@@H](F)C(C)(C)O)CC1(F)F (single isomer, unassigned) [Example 16] | 6 nM | 1090 nM |  |
| CC(C)(O)[C@H](F)CNC(=O)c1cnc(-c2cnn3cc(Cl)cnc23)cc1NC1COCC1(F)F (single isomer, unassigned) [Example 18] | 8 nM |  | 1150 nM |
| CC(C)(O)[C@H](F)CNC(=O)c1cnc(-c2cnn3cc(C#N)cnc23)cc1NC1CCCOC1 (single isomer, unassigned) [Example 94] | 10 nM | 370 nM |  |
| CC(C)(O)[C@H](F)CNC(=O)c1cnc(-c2cnn3cc(C#N)cnc23)cc1NC1CCCOC1 (single isomer, unassigned) [Example 95] | 6 nM | 1160 nM |  |
| CC(C)Nc1cc(-c2cnc3cc(C#N)cnn23)ncc1C(=O)NCC(F)C1CC(C)OC(C)C1 (single isomer, unassigned) [Example 176, 6-(7-cyanoimidazo[1,2-b]pyridazin-3-yl)-N-(2-(2,6-dimethyltetrahydro-2H-pyran-4-yl)-2-fluoroethyl)-4-(isopropylamino)nicotinamide] | 3 nM |  | 540 nM |
| CCC(C)Nc1cc(-c2cnn3cc(Cl)cnc23)ncc1C(=O)NC[C@@H](F)C(C)(C)O (stereo in doubt) [Example 69, 4-(((R)-sec-butyl)amino)-6-(6-chloropyrazolo[1,5-a]pyrimidin-3-yl)-N—((R)-2-fluoro-3-hydroxy-3-methylbutyl)nicotinamide] | 2 nM |  | 3170 nM |
| CC(C)(CO)Nc1cc(-c2cnn3cc(Cl)cnc23)ncc1C(=O)NC[C@@H](F)C(C)(C)O [Example 7, (R)-6-(6-chloropyrazolo[1,5-a]pyrimidin-3-yl)-N-(2-fluoro-3-hydroxy-3-methylbutyl)-4-((1-hydroxy-2-methylpropan-2-yl)amino)nicotinamide] | 2 nM |  | 570 nM |
| CC(C)Nc1cc(-c2cnn3cc(Cl)cnc23)ncc1C(=O)NCCC(C)(C)F [Example 20, 6-(6-chloropyrazolo[1,5-a]pyrimidin-3-yl)-N-(3-fluoro-3-methylbutyl)-4-(isopropylamino)nicotinamide] | 7 nM |  | 2530 nM |
| CC(C)Nc1cc(-c2cnc3cccnn23)ncc1C(=O)NC[C@@H](F)C(C)(C)O [Example 21, (R)—N-(2-fluoro-3-hydroxy-3-methylbutyl)-6-(imidazo[1,2-b]pyridazin-3-yl)-4-(isopropylamino)nicotinamide] | 7 nM | 2530 nM |  |
| CNC(=O)[C@H]1CC[C@H](NC(=O)c2cnc(-c3cnn4cc(Cl)cnc34)cc2NC2CC2)CC1 [Example 25, 6-(6-chloropyrazolo[1,5-a]pyrimidin-3-yl)-4-(cyclopropylamino)-N-((1r,4r)-4-(methylcarbamoyl)cyclohexyl)nicotinamide] | 5 nM |  | 460 nM |
| CNC(=O)[C@H]1CC[C@H](NC(=O)c2cnc(-c3cnn4cc(Cl)cnc34)cc2NC(C)C)CC1 [Example 27, 6-(6-chloropyrazolo[1,5-a]pyrimidin-3-yl)-4-(isopropylamino)-N-((1r,4r)-4-(methylcarbamoyl)cyclohexyl) nicotinamide] | 7 nM |  | 1050 nM |
| CC(C)Nc1cc(-c2cnn3cc(Cl)cnc23)ncc1C(=O)N[C@H]1CC[C@H](C(=O)NC2CC2)CC1 [Example 28, 6-(6-chloropyrazolo[1,5-a]pyrimidin-3-yl)-N-((1r,4r)-4-(cyclopropylcarbamoyl)cyclohexyl)-4-(isopropylamino)nicotinamide] | 5 nM |  | 1920 nM |
| CC(C)(O)[C@H](F)CNC(=O)c1cnc(-c2cnn3cc(Cl)cnc23)cc1Nc1cccc(C#N)c1F [Example 35, (R)-6-(6-chloropyrazolo[1,5-a]pyrimidin-3-yl)-4-((3-cyano-2-fluorophenyl)amino)-N-(2-fluoro-3-hydroxy-3-methylbutyl)nicotinamide] | 2 nM |  | 2440 nM |
| O=C(N[C@H]1CC[C@H](C(=O)NC2CC2)CC1)c1cnc(-c2cnn3cc(Cl)cnc23)cc1NC1COC1 [Example 41, 6-(6-chloropyrazolo[1,5-a]pyrimidin-3-yl)-N-((1r,4r)-4-(cyclopropylcarbamoyl)cyclohexyl)-4-(oxetan-3-ylamino)nicotinamide] | 7 nM |  | 350 nM |
| CC(C)(O)[C@H](F)CNC(=O)c1cnc(-c2cnn3cc(Cl)cnc23)cc1NCC1(O)CCC1 [Example 51, (R)-6-(6-chloropyrazolo[1,5-a]pyrimidin-3-yl)-N-(2-fluoro-3-hydroxy-3-methylbutyl)-4-(((1-hydroxycyclobutyl)methyl)amino)nicotinamide] | 10 nM |  | 1250 nM |
| [2H]C([2H])([2H])OC(C)(C)[C@H](F)CNC(=O)c1cnc(-c2cnn3cc(Cl)cnc23)cc1NC(C)C [Example 57, (R)-6-(6-chloropyrazolo[1,5-a]pyrimidin-3-yl)-N-(2-fluoro-3-trideuteromethoxy-3-methylbutyl)-4-(isopropylamino)nicotinamide] | 3 nM |  | 2340 nM |
| CC(C)(O)[C@H](F)CNC(=O)c1cnc(-c2cnn3cc(Cl)cnc23)cc1NC12CC(C1)C2 [Example 75, (R)-4-(bicyclo[1.1.1]pentan-1-ylamino)-6-(6-chloropyrazolo[1,5-a]pyrimidin-3-yl)-N-(2-fluoro-3-hydroxy-3-methylbutyl)nicotinamide] | 2 nM |  | 1460 nM |
| CC1(Nc2cc(-c3cnn4cc(Cl)cnc34)ncc2C(=O)NC[C@@H](F)C(C)(C)O)CC1 [Example 80, (R)-6-(6-chloropyrazolo[1,5-a]pyrimidin-3-yl)-N-(2-fluoro-3-hydroxy-3-methylbutyl)-4-((1-methylcyclopropyl)amino)nicotinamide] | 6 nM |  | 840 nM |
| C[C@H](CO)Nc1cc(-c2cnn3cc(C#N)cnc23)ncc1C(=O)NC[C@@H](F)C(C)(C)O [Example 98, 6-(6-cyanopyrazolo[1,5-a]pyrimidin-3-yl)-N—((R)-2-fluoro-3-hydroxy-3-methylbutyl)-4-(((R)-1-hydroxypropan-2-yl)amino)nicotinamide] | 6 nM |  | 860 nM |
| CC(C)(O)[C@H](F)CNC(=O)c1cnc(-c2cnn3cc(C#N)cnc23)cc1NC1COC1 [Example 99, (R)-6-(6-cyanopyrazolo[1,5-a]pyrimidin-3-yl)-N-(2-fluoro-3-hydroxy-3-methylbutyl)-4-(oxetan-3-ylamino) nicotinamide] | 4 nM |  | 600 nM |
| CC(C)(O)[C@H](F)CNC(=O)c1cnc(-c2cnn3cc(C#N)cnc23)cc1N[C@@H](CO)Cc1ccccc1 [Example 101, 6-(6-cyanopyrazolo[1,5-a]pyrimidin-3-yl)-N—((R)-2-fluoro-3-hydroxy-3-methylbutyl)-4-(((R)-1-hydroxy-3-phenylpropan-2-yl)amino)nicotinamide] | 7 nM |  | 1640 nM |
| CC(C)(O)[C@H](F)CNC(=O)c1cnc(-c2cnn3cc(C#N)cnc23)cc1N[C@@H]1CCN(c2ncc(F)cn2)C1 [Example 109, 6-(6-cyanopyrazolo[1,5-a]pyrimidin-3-yl)-N—((R)-2-fluoro-3-hydroxy-3-methylbutyl)-4-(((R)-1-(5-fluoropyrimidin-2-yl)pyrrolidin-3-yl)amino)nicotinamide] | 5 nM |  | 440 nM |
| CC(C)(O)[C@H](F)CNC(=O)c1cnc(-c2cnn3cc(C#N)cnc23)cc1Nc1cccc(C(N)=O)c1 [Example 111, (R)-4-((3-carbamoylphenyl)amino)-6-(6-cyanopyrazolo[1,5-a]pyrimidin-3-yl)-N-(2-fluoro-3-hydroxy-3-methylbutyl)nicotinamide] | 3 nM |  | 900 nM |
| CC(C)(CO)Nc1cc(-c2cnn3cc(C#N)cnc23)ncc1C(=O)NC[C@@H](F)C(C)(C)O [Example 114, (R)-6-(6-cyanopyrazolo[1,5-a]pyrimidin-3-yl)-N-(2-fluoro-3-hydroxy-3-methylbutyl)-4-((1-hydroxy-2-methylpropan-2-yl)amino)nicotinamide] | 3 nM |  | 480 nM |
| CC(C)(O)[C@H](F)CNC(=O)c1cnc(-c2cnn3cc(C#N)cnc23)cc1N[C@@H]1CCN(c2ncccn2)C1 [Example 118, 6-(6-cyanopyrazolo[1,5-a]pyrimidin-3-yl)-N—((R)-2-fluoro-3-hydroxy-3-methylbutyl)-4-(((R)-1-(pyrimidin-2-yl)pyrrolidin-3-yl)amino)nicotinamide] | 9 nM |  | 710 nM |
| CC(C)(O)[C@H]1CC[C@H](NC(=O)c2cnc(-c3cnn4cc(C#N)cnc34)cc2NC2COC2)CC1 [Example 120, 6-(6-cyanopyrazolo[1,5-a]pyrimidin-3-yl)-N-((1r,4r)-4-(2-hydroxypropan-2-yl)cyclohexyl)-4-(oxetan-3-ylamino)nicotinamide] | 9 nM |  | 800 nM |
| CC(C)Nc1cc(-c2ccn(-c3ccncc3)n2)ncc1C(=O)NC[C@@H](F)C(C)(C)O [Example 156, (R)—N-(2-fluoro-3-hydroxy-3-methylbutyl)-4-(isopropylamino)-6-(1-(pyridin-4-yl)-1H-pyrazol-3-yl)nicotinamide] | 14 nM |  | 2340 nM |
| CC(C)Nc1cc(-c2cnn3cc(Cl)cnc23)ncc1C(=O)NC[C@@H](F)C(C)(C)OC(F)F [Example 157, (R)-6-(6-chloropyrazolo[1,5-a]pyrimidin-3-yl)-N-(3-(difluoromethoxy)-2-fluoro-3-methylbutyl)-4-(isopropylamino)nicotinamide] | 3 nM |  | 930 nM |
